SMILES strings stand for the structures. Changes are numbered by the printed parent chain.

Common to all, as to assay type: biochemical
For test [1], the target named is T1, Caldanaerobius polysaccharolyticus endo-β-mannanase Man5B, wild type, SEQ ID NO: 31 (Caldanaerobius polysaccharolyticus, UniProt D9J0D7). Put plainly: Catalytic efficiency with oligosaccharides, HPAEC (Man5B). The conditions noted are these: value for GM3 higher than that for GM2. The protocol:
Cloning, expression, and purification of Man5A-TM1, Man5A-TM2 and Man5B. C. polysaccharolyticus was cultured in TYG medium and DNA was isolated from mid-log cultures and purified using the Qiagen DNeasy Blood and Tissue kit with an integrated RNase treatment step. The genome of C. polysaccharolyticus was partially sequenced by the W. M. Keck Biotechnology Center at the University of Illinois at Urbana-Champaign. A Newbler assembly was generated which is comprised of ½ plate of FLX PE 454 data and ½ plate of 8 kb paired-end GSFLX Titanium data using a Genome Sequencer instrument from 454 Life Sciences (Branford, Conn.). The partial genome sequence was uploaded onto the Rapid Annotation using Subsystem Technology (RAST) server (Aziz et al., BMC Genomics, 9:75, 2008). Auto-annotation of the C. polysaccharolyticus partial genome sequence identified ORF0760 as a gene predicted to encode a bifunctional β-D-mannanase/endoglucanase (Man5B). Man5A was previously identified in a recombinant phage library of C. polysaccharolyticus genomic DNA, which was screened for endoglucanase activity (Cann et al., J Bacteriol, 181:1643, 1999) and the full sequence of this gene was also identified in the partial genome sequence for C. polysaccharolyticus. […]

The target in test [2] is T2, Caldanaerobius polysaccharolyticus endo-β-mannanase Man5B (SEQ ID NO: 31) variant E258A (Caldanaerobius polysaccharolyticus, UniProt D9J0D7, E258A).
T2 sequence (D9J0D7 1-330 E258A): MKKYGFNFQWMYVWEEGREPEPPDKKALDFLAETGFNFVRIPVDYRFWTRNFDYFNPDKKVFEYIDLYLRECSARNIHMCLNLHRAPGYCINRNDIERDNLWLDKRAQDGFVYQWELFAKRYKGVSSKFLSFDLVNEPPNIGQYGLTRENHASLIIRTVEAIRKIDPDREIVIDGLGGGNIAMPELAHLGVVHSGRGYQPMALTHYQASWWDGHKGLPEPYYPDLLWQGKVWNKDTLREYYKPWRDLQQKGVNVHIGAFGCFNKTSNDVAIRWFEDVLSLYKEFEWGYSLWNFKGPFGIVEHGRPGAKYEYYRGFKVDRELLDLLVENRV
Put plainly: Kinetic properties with pNP-linked sugars (Man5B E258A). The conditions noted are these: relative to wild type. The protocol:
(§1) Determination of kinetic properties for wild type and mutant Man5B with pNP-linked sugars. Kinetic properties of wild type and mutant Man5B were determined for pNP-β-D-mannopyranoside and pNP-β-D-cellobioside. The substrate concentrations ranged from 0.06 to 10 mM and reactions were performed at 65° C. in citrate buffer (50 mM sodium citrate, pH 5.5). The reactions were equilibrated to 65° C. using a thermostated Cary 300 UV-Vis spectrophotometer, and the reactions were initiated by the addition of wild type (5 nM, final concentration) or mutant (2 μM, final concentration) Man5B. The rate of pNP release was determined by continuously monitoring the absorbance at 400 nm. Initial rate data were then plotted against the substrate concentrations, and the values of the Michaelis-Menten constant (KM) and the maximum velocity (Vmax) were estimated from a nonlinear curve fit using GraphPad Prism v5.01 from GraphPad Software (San Diego, Calif.). The kcat was calculated as the quotient of the Vmax and the concentration of enzyme used in the reaction.
(§2) Site-directed mutagenesis. Mutagenesis was carried out using PCR-based […] […]
(§3) Next, to test whether the mutations introduced in Man5B had any effects on the catalytic activity of this enzyme, the catalytic parameters for the wild type and mutant enzymes were determined using pNP-β-D-cellobioside and pNP-β-D-mannopyranoside as substrates.

The target of test [3] is T3, Caldanaerobius polysaccharolyticus endo-β-mannanase Man5B (SEQ ID NO: 31) variant E137A (Caldanaerobius polysaccharolyticus, UniProt D9J0D7, E137A).
T3 sequence (D9J0D7 1-330 E137A): T2 sequence (D9J0D7 1-330 E258A) with E137A, A258E
Put plainly: Kinetic properties with pNP-linked sugars (Man5B E137A). The conditions noted are these: relative to wild type. The protocol:
as §1, §2, §3

Test [4] deals with T1, Caldanaerobius polysaccharolyticus endo-β-mannanase Man5B, wild type, SEQ ID NO: 31. The experiment in a line: Kinetic properties with pNP-linked sugars (Man5B wild type). The conditions noted are these: reference. The procedure:
The plasmid constructs were then introduced into E. coli BL-21 CodonPlus (DE3) RIL competent cells by heat shock, and grown overnight in lysogeny broth (LB) agar medium supplemented with ampicillin (100 μg/mL) and chloramphenicol (50 μg/mL) at 37° C. After 12 h, single colonies were selected and used to inoculate fresh LB (10 mL) supplemented with the antibiotics above at the same concentrations, followed by culturing with aeration for 8 h at 37° C. The pre-cultures were then inoculated into fresh LB (1 L) supplemented with ampicillin and chloramphenicol and the cultures were incubated at 37° C. with vigorous aeration (225 rpm/min). […] Aliquots of eluted fractions were analyzed by sodium dodecyl sulfate-polyacrylamide gel electrophoresis (SDS-PAGE) and protein bands were visualized by staining with Coomassie brilliant blue G-250. […] The UV absorbances of the protein solutions were recorded at 280 nm using a Nanoprop 1000 from Thermo Scientific (Waltham, Mass.) and the protein concentrations were calculated using the following extinction coefficients: Man5A-TM1, ε280 nm=189 mM^−1 cm^−1; Man5A-TM2, ε280 nm=113 mM^−1 cm^−1; Man5B, ε280 nm=103 mM^−1 cm^−1.
Determination of kinetic properties for wild type and mutant Man5B with pNP-linked sugars. Kinetic properties of wild type and mutant Man5B were determined for pNP-β-D-mannopyranoside and pNP-β-D-cellobioside. […]

The target of test [5] is T4, Caldanaerobius polysaccharolyticus endo-β-mannanase Man5B (SEQ ID NO: 31) variant E258Q (Caldanaerobius polysaccharolyticus, UniProt D9J0D7, E258Q).
T4 sequence (D9J0D7 1-330 E258Q): T2 sequence (D9J0D7 1-330 E258A) with A258Q
Put plainly: Kinetic properties with pNP-linked sugars (Man5B E258Q). The conditions noted are these: relative to wild type. The procedure:
as §1, §2, §3

Test [6] has as its target T5, Caldanaerobius polysaccharolyticus endo-β-mannanase Man5B (SEQ ID NO: 31) variant E137Q (Caldanaerobius polysaccharolyticus, UniProt D9J0D7, E137Q).
T5 sequence (D9J0D7 1-330 E137Q): T2 sequence (D9J0D7 1-330 E258A) with E137Q, A258E
The experiment in a line: Kinetic properties with pNP-linked sugars (Man5B E137Q). The settings on record: relative to wild type. The protocol:
as §1, §2, §3

T1 sequence (D9J0D7 entry or part of it): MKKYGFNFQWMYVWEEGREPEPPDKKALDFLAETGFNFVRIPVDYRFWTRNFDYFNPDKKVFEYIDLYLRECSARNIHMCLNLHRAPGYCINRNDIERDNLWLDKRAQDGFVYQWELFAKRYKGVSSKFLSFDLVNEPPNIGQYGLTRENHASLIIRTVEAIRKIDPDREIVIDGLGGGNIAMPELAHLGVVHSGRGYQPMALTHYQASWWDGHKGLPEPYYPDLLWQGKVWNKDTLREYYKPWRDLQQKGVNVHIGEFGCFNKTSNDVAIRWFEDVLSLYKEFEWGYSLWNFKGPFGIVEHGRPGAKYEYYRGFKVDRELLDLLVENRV

With `OC[C@H]1O[C@H](OC[C@H]2OC(O)[C@@H](O)[C@@H](O)[C@@H]2O[C@@H]2O[C@H](CO)[C@@H](O[C@@H]3O[C@H](CO)[C@@H](O)[C@H](O)[C@@H]3O)[C@H](O)[C@@H]2O)[C@H](O)[C@@H](O)[C@H]1O` (stereo partly drawn) [6-galactosyl-mannotriose, α-1,6-galactosyl-mannotriose], in test [1], the “catalytic efficiency (kcat/Km), GM3 relative to GM2” value amounted to 20 fold.

For the compound `O=[N+]([O-])c1ccc(O[C@@H]2O[C@H](CO)[C@@H](O[C@@H]3O[C@H](CO)[C@@H](O)[C@H](O)[C@H]3O)[C@H](O)[C@H]2O)cc1` [pNP-cellobioside, pNP-β-D-cellobioside], the “rkcat (residual kcat)” value is reported as 0.55% in test [2]; 0.48% in test [3]; 100% in test [4]; 0.62% in test [5]; 1.96% in test [6].

Consider `O=[N+]([O-])c1ccc(O[C@@H]2O[C@H](CO)[C@@H](O)[C@H](O)[C@@H]2O)cc1` [pNP-β-D-mannopyranoside], for which the “rkcat (residual kcat)” value in test [2] is recorded as 0.04%; in test [3], 0.04%; in test [4] it was 100%; in test [5], 0.03%; in test [6], 0.04%.

For the origin of these results see patent US8357518B2, “Thermostable enzymes for the hydrolysis of mannan-containing polysaccharides” (The Board of Trustees of the University of Illinois, priority 2010, dated 2013).
